Results: patent publication US11718603B2, “CDK2 inhibitors” (Pfizer Inc., priority 2019, dated 2023)
pKi: −log10 of the molar value. Like-named read-outs stand apart in the source and are kept apart here.

Assays:
CDK2/Cyclin E1 = CDK2/Cyclin E1 (Homo sapiens (Human), UniProt P24941); test: CDK2/Cyclin E1 full length mobility shift assay; assay type: biochemical
Protocol: CDK2/Cyclin E1 Full Length Mobility Shift Assay
Wild-type CDK2/wild-type full length Cyclin E1 enzyme complex was produced in-house (baculoviral expression, LJIC-2080/LJIC-2103) and phosphorylated by CDK7/Cyclin H1/Mat1 enzyme complex with CDK2:CDK7 ratio of 50:1 (concentration mg/mL) in the presence of 10 mM MgCl2 and 5 mM ATP at room temperature for one hour. […] The assay was initiated with the addition of ATP, following a fifteen minutes pre-incubation of enzyme and inhibitor at room temperature in the reaction mixture. The reaction was stopped after 45 minutes at room temperature by the addition of 50 μL of 80 mM EDTA.

GSK3β [1] = target: T1, GSK3β (Homo sapiens, UniProt P49841); test: biochemical; settings: GSK3β Ki (nM)
Protocol: (§1) The assay was initiated with the addition of ATP, following 15 minutes pre-incubation of enzyme and inhibitor at room temperature in the reaction mixture. The reaction was stopped after 30 minutes at room temperature by the addition of 50 μL of 80 mM EDTA.

GSK3β [2] = target: T1, GSK3β; settings: read-out: GSK3β Ki
Protocol: as §1

Row | pKi (CDK2/Cyclin E1) | Ki (GSK3β [1]) | SMILES | pKi (GSK3β [2])
1 | 9.72 | 14 nM | Cc1ncc(CC(=O)Nc2cc([C@@H]3CC[C@H](OC(=O)N[C@@H]4CCOC[C@H]4C)C3)[nH]n2)s1 (single isomer, unassigned; isomer a) [Example 510, (1S,3R)-3-(3-{[(2-methyl-1,3-thiazol-5-yl)acetyl]amino}-1H-pyrazol-5-yl)cyclopentyl [(3S*,4R*)-3-methyltetrahydro-2H-pyran-4-yl]carbamate- Isomer A] | –
2 | 8.82 | 4.74 nM | Cc1ncc(CC(=O)Nc2cc([C@@H]3CC[C@H](OC(=O)N[C@@H]4CCOC[C@H]4C)C3)[nH]n2)s1 (single isomer, unassigned; isomer b) [Example 511, (1S,3R)-3-(3-{[(2-methyl-1,3-thiazol-5-yl)acetyl]amino}-1H-pyrazol-5-yl)cyclopentyl [(3S*,4R*)-3-methyltetrahydro-2H-pyran-4-yl]carbamate- Isomer B] | –
3 | 9.51 | – | Cc1ncc(CC(=O)Nc2cc([C@H]3CC[C@@H](OC(=O)NC(C)C)C3)[nH]n2)s1 [Example 2, (1R,3S)-3-(3-{[(2-methyl-1,3-thiazol-5-yl)acetyl]amino}-1H-pyrazol-5-yl)cyclopentyl propan-2-ylcarbamate] | –
4 | – | – | Cc1cc(CC(=O)Nc2cc([C@H]3CC[C@@H](OC(=O)N4CCCC[C@@H]4C)C3)[nH]n2)on1 [Example 640, (1R,3S)-3-(3-{[(3-methyl-1,2-oxazol-5-yl)acetyl]amino}-1H-pyrazol-5-yl)cyclopentyl(2S)-2-methylpiperidine-1-carboxylate] | 7.88

Row | SMILES | pKi (CDK2/Cyclin E1) | Ki (GSK3β [1]) | pKi (GSK3β [2])
5 | CC[C@H](C)NC(=O)O[C@@H]1CC[C@H](c2cc(NC(=O)c3cc(COC)nn3C)n[nH]2)C1 [Example 14, (1R,3S)-3-[3-({[3-(methoxymethyl)-1-methyl-1H-pyrazol-5-yl]carbonyl}amino)-1H-pyrazol-5-yl]cyclopentyl (2S)-butan-2-ylcarbamate] | 9.57 | – | 6.53
6 | COc1ccc(CC(=O)Nc2cc([C@@H]3CC[C@H](OC(=O)N4CCC4(C)C)C3)[nH]n2)cn1 [Example 145] | 9.92 | – | –
